Test results published in publication PMC10671360, “In Silico and In Vitro Study towards the Rational Design of 4,4′-Disarylbisthiazoles as a Selective α-Synucleinopathy Biomarker” (International Journal of Molecular Sciences, 2023).

Tests used:
[1] = biological target: T1, recombinant α-syn fibrils (Homo sapiens, UniProt P37840); assay: Competition binding assay against [^3H]DCVJ, α-syn fibrils; details: for Selectivity Aβ/α-syn / Selectivity tau/α-syn: ratio of Ki, [^3H]DCVJ was used
T1 construct: made in house
Protocol: The incubation of purified recombinant α-synuclein monomer (10 mg/mL) obtained as described by Uzuegbunam was carried out in PBS (pH 7.4) at 37 °C. The solution was left shaking at 900 rpm in an Eppendorf Thermomixer for up to 84 h. Determination of the concentration of the formed fibrils (α-syn) was carried out following the centrifugation of the reaction vial at 12,000× g for 5 min. The pellet obtained was washed thrice with 20 mM of Tris-HCl, pH 7.4. The supernatants from the three centrifugation steps were combined, and the concentration of the monomer in the resulting supernatant was determined in a BCA assay (Thermo Fisher Scientific, Waltham, MA, USA) (with a BSA standard curve). Determination of the concentration of α-syn was carried out by subtracting the amount of α-synuclein monomer in the supernatant from the initial amount used for fibrillation.
The pellets of the fibrils obtained above (Section 4.2.1) were resuspended in 20 mM of Tris-HCl, pH 7.4 and diluted as needed for the binding assays.
(§1) A fixed concentration of [^3H]DCVJ (10 nM) and α-synuclein aggregates (125 nM), prepared as described above (Section 4.2.3), was used with different final concentrations of the DABTAs from 0.01 to 100 nM (see SI Figure S1). The experiment was carried out in quintuplicate for each concentration. The mixture was incubated for 2 h in a final volume of 200 μL per well after dilution with 20 mM of Tris-HCl, pH 7.4. The incubated mixtures were filtered through a Perkin Elmer GF/B glass filter via a TOMTEC cell harvester and immediately washed thrice with 1 mL of deionized water. The filters containing the bound ligands were dried and afterwards mixed with 3 mL of BetaPlate Scint solution (Perkin Elmer Life Sciences, Waltham, MA, USA) and left there for 2 h before counting in a Wallac 1450 MicroBeta TriLux Liquid Scintillation Counter (PerkinElmer Life Sciences, Waltham, MA, USA). For the determination of the inhibition constants, data were analyzed using GraphPad Prism software (version 7.0) to obtain IC50 values by fitting the data to the equation Y = bottom + (top − bottom)/(1 + 10(x − log IC50)). Ki values were calculated from IC50 values using the equation Ki = IC50/(1 + [radioligand]/Kd). […] Further protocol was carried out as for [^3H]DCVJ (see SI Figure S3).

tau fibrils = tau fibrils (Homo sapiens, UniProt P10636); assay: Competition binding assay against [^3H]PiB, tau fibrils
Chain of tau fibrils (P10636 2-758): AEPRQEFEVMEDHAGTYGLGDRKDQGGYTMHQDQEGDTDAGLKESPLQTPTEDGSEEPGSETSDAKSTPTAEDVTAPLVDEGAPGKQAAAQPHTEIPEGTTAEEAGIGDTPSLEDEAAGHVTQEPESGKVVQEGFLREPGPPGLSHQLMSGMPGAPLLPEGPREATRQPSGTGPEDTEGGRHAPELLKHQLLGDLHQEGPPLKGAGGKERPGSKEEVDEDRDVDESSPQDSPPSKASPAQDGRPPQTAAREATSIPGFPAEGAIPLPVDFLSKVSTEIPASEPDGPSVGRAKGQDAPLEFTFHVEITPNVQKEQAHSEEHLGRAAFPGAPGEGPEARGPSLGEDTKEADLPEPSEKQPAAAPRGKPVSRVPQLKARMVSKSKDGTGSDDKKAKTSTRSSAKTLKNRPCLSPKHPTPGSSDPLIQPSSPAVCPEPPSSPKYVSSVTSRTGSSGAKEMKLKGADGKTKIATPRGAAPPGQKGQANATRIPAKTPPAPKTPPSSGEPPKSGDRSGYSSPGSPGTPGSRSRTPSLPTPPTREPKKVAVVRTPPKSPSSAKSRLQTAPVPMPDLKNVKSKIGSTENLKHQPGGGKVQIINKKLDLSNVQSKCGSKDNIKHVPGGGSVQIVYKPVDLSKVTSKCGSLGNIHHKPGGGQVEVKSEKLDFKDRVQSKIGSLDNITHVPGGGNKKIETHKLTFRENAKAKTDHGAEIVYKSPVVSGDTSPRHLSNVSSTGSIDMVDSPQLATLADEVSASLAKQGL
Protocol: as §1, with “Recombinant tau monomer (R&D systems, Minneapolis, MN, USA) was dissolved in 20 mM of Tris HCl, pH 8.0, 100 mM of NaCl, 25 μM of low-MW heparin, and 0.5 mM of dithiothreitol to a final concentration of 300 µg/mL. The mixture was incubated with shaking at 900 rpm at 37 °C for 48 h. To separate the non-aggregated monomers from the formed fibrils, the reaction mixture was centrifuged at 12,000× g for 5 min, and the resulting pellet was washed three times with 500 μL of 20 mM Tris-HCl, pH 7.4. The supernatants from the three centrifugation steps were combined, and the concentration of the monomer in the resulting supernatant was determined in a BCA assay(Thermo Fisher Scientific, Waltham, MA, USA) (with a BSA standard curve). Determination of the concentration of fibrils formed was carried out by subtracting the amount of tau peptide monomer in the supernatant from the initial amount used for fibrillation. The pellets of the fibrils obtained above (Section 4.2.1) were resuspended in 20 mM of Tris-HCl, pH 7.4 and diluted as needed for the binding assays. A fixed” for “A fixed”, “Figure S3). […] Further procedures followed the same already described in Section 4.2.3.1 (See SI Figure S4).” for “Figure S3).”

[2] = biological target: T1, recombinant α-syn fibrils; assay: Competition binding assay against [^3H]PiB, α-syn fibrils; details: for Selectivity Aβ/α-syn / Selectivity tau/α-syn: ratio of Ki, [^3H]PiB was used
[3] = [^3H]DCVJ was used (10 nM), α-synuclein aggregates 125 nM

Ki [1, 3] [nM] | Selectivity Aβ/α-syn [1] | Selectivity tau/α-syn [1] | Ki (tau fibrils) [nM] | Ki [2] [nM] | Selectivity Aβ/α-syn [2] | Selectivity tau/α-syn [2] | Ki α-syn [1, 3] | Structure (SMILES)
0.99 | 253.1 | 469.6 | 766 | 1.51 | 122.6 | 507.5 | – | FCCOc1cnc(-c2csc(-c3nc(-c4cnc5c(c4)OCO5)cs3)n2)nc1 [f4, 6-(4′-(5-(2-Fluoroethoxy)pyrimidin-2-yl)-[2,2′-bithiazol]-4-yl)-[1,3]dioxolo[4,5-b]pyridine]
0.5 | 395.6 | 874.4 | 362 | 4.89 | 19.8 | 74.1 | subnanomolar | FCCOCCOc1cnc(-c2csc(-c3nc(-c4ccc5c(c4)OCO5)cs3)n2)nc1 [f6, 4-(Benzo[d][1,3]dioxol-5-yl)-4′-(5-(2-(2-fluoroethoxy)ethoxy)pyrimidin-2-yl)-2,2′-bithiazole]
2.27 | 58.9 | 227.0 | 516 | 2.88 | 53.8 | 179.2 | – | FCCOc1cnc(-c2csc(-c3nc(-c4ccc5c(c4)OCO5)cs3)n2)nc1 [f5, 4-(Benzo[d][1,3]dioxol-5-yl)-4′-(5-(2-fluoroethoxy)pyrimidin-2-yl)-2,2′-bithiazole]
1.36 | 299.1 | >735.3 | 434 | 4.75 | 45.1 | 91.5 | – | Fc1ncc(-c2csc(-c3nc(-c4cnc5c(c4)OCO5)cs3)n2)cn1 [d10]
